In patent US8557559B2, “Self-dying recombinant microorganism for measuring soil and water contamination” (priority 2010, dated 2013):

Legend:
Assay type in all cases: cell-based
[1] = test system: recombinant strain, Sphingomonas paucimobilis (SEQ ID NO. 1); experiment: Verification of substrate specificity: fluorescence reaction of recombinant strain in inorganic medium (LIVE/DEAD BacLight staining, micro-plate reader); details: inorganic medium with pyruvate; about 50 mg/L through about 500 mg/L; FIG. 2
Protocol: Phenanthrene was added to an inorganic medium including pyruvate as a carbon source, up to phenanthrene concentrations of about 50 mg/L through about 500 mg/L, the recombinant strain was inoculated, and a sample was taken every 24-hour and stained using LIVE/DEAD BacLight bacterial viability kit (Molecular Probes, L7012) and a fluorescence reaction was measured by a micro-plate reader.
A reaction of the recombinant strain with respect to an inorganic medium including hexane and hexadecane that are aliphatic hydrocarbon having the equivalent concentration, hexane concentrations being about 50 mg/L through about 500 mg/L and hexadecane concentrations being about 50 mg/L through about 500 mg/L, and a reaction of the recombinant strain with respect to an inorganic medium including toluene that is a monoaromatic hydrocarbon, toluene concentrations being about 1 mg/L through about 50 mg/L, were respectively measured for comparison.
The LIVE/DEAD BacLight bacterial viability kit is a dying scheme that labels, using a DNA-binding dye, DNA of a live microorganism with green fluorescence and labels, using […], DNA of dead microorganism with red fluorescence and thus, indicates a viability of microorganisms.
The reaction of the recombinant strain was expressed by a relative fluorescence intensity FL/FL0, that is, a value obtained by dividing a fluorescence reaction value FL of a recombinant strain exposed to a target contaminant by a fluorescence reaction value FL0 of a recombinant strain that is not exposed to the target contaminant. The relative fluorescence intensity FL/FL0 expresses the reaction of the recombinant strain, which is based on a concentration of contaminant, with a rate of decreasing fluorescence and thus, an error rate may be reduced during a test, and a concentration of toxicity may be expressed with a standardized fluorescence intensity value.

[2] = test system: recombinant strain, Sphingomonas paucimobilis (SEQ ID NO. 1); experiment: Performance of recombinant strain in model soil (Ottawa sand), CLSM fluorescence quantified with ImageJ; details: model soil contaminated 50 mg/kg to 1000 mg/kg; FIG. 3
Source text: (§1) A confocal laser scanning microscope (CLSM) may measure a fluorescence reaction of the mixture of a soil sample and microorganisms to analyze phenanthrene in the soil sample. An image including measured green fluorescence and measured red fluorescence may be converted into a grayscale image after removing the measured red fluorescence from the image based on Adobe Photoshop CS4 (Adobe Systems, CA, USA). An integrated fluorescence intensity in an image of 254×254 pixels was quantified using a measure function of ImageJ program (ImageJ; Rasband, 1997-2009). The integrated fluorescence intensity may be a value obtained by dividing sum of illuminance of all the pixels by a number of the pixels in the image.
Ottawa sand was used as a model soil. The model soil was contaminated with phenanthrene up to concentrations from 50 mg/kg to 1000 mg/kg, an inorganic medium including pyruvate as a source of carbon was added, the inorganic medium of 10 mL per the model soil of 2 g, the recombinant strain was inoculated, and a sample was taken every 24-hour to measure a fluorescence response.
A fluorescence response was photographed by a CLSM to directly measure a mixture of the model soil, the liquid medium, and the recombinant strain, and the measured fluorescence reaction was quantified using an ImageJ program. […]

[3] = test system: recombinant strain, Sphingomonas paucimobilis (SEQ ID NO. 1); experiment: Performance of recombinant strain in real soil (M soil), CLSM fluorescence; details: 50 mg/kg to 1000 mg/kg, 24-hours, FIGS. 5 and 6
Source text: as §1
Phenanthrene was added to soil that had not been contaminated with phenanthrene up to concentrations from 50 mg/kg to 1000 mg/kg, an inorganic medium was added, the inorganic medium of 10 mL per soil of 2 g, the recombinant strain was inoculated and cultivated for 24-hours, and a reaction was measured in the same manner as Example 3.

Row | SMILES | response of the recombinant strain (relative fluorescence intensity FL/FL0) [1] | response of the recombinant strain to phenanthrene in Ottawa sand [2] | reaction of the recombinant strain to phenanthrene in real soil [3]
1 | CCCCCCCCCCCCCCCC [hexadecane] | may not respond |  | 
2 | CCCCCC [hexane] | may not respond |  | 
3 | c1ccc2c(c1)ccc1ccccc12 [phenanthrene] | death response | as phenanthrene concentrations increase, a number of live microorganisms decrease | significantly sensitive to phenanthrene concentrations
